Experimental data taken from patent US20100137277A1, “PYRIDINE COMPOUNDS AND THEIR USE AS P2Y12 ANTAGONISTS” (ASTRAZENECA AB, priority 2007, published 2010).

The compounds below were run against T1, P2Y12 receptor (Homo sapiens, UniProt Q9H244) (assay: Functional inhibition of 2-Me-S-ADP induced P2Y12 signalling (35S-GTPγS binding, membranes from P2Y12 transfected CHO-cells)). Conditions: EC80 of agonist, value given at the end of each example.
T1 construct: expressed in transfected cells; host or cells: CHO cells (membranes)
T1 sequence (Q9H244 whole entry): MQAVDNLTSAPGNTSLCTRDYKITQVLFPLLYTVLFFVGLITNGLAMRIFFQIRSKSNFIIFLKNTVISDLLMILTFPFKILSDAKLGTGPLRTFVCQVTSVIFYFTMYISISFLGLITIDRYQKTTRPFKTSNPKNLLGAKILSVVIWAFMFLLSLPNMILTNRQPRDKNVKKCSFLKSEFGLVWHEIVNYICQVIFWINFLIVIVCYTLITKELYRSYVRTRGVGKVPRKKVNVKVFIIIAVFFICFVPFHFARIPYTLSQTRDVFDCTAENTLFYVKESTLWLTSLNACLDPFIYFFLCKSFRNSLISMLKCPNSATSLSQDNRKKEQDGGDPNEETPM
Assay type: biochemical
Protocol: Functional inhibition of—the P2Y12 receptor can be measured by in vitro assays using cell membranes from P2Y12 transfected CHO-cells, the methodology is indicated below.
Functional inhibition of 2-Me-S-ADP induced P2Y12 signalling: 5 μg of membranes were diluted in 200 μl of 200 mM NaCl, 1 mM MgCl2, 50 mM HEPES (pH 7.4), 0.01% BSA, 30 μg/ml saponin and 10 μM GDP. To this was added an EC80 concentration of agonist (2-methyl-thio-adenosine diphosphate), the required concentration of test compound and 0.1 μCi ^35S-GTPγS. The reaction was allowed to proceed at 30° C. for 45 min. Samples were then transferred on to GF/B filters using a cell harvester and washed with wash buffer (50 mM Tris (pH 7.4), 5 mM MgCl2, 50mM NaCl). Filters were then covered with scintilant and counted for the amount of ^35S-GTPγS retained by the filter. Maximum activity was that determined in the presence of the agonist and minimum activity in the absence of the agonist following subtraction of the value determined for non-specific activity. The effect of compounds at various concentrations was plotted according to the equation
y=A+((B−A)/(1+((C/x)̂D)))
and IC50 estimated where • A is the bottom plateau of the curve i.e. the final minimum y value • B is the top of the plateau of the curve i.e. the final maximum y value • C is the x value at the middle of the curve. This represents the log EC50 value when A+B=100 • D is the slope factor. • x is the original known x values. • Y is the original known y values.
Functional inhibition of 2-Me-S-ADP induced P2Y12 signalling: 5 μg of membranes were diluted in 200 μl of 200 mM NaCl, 1 mM MgCl2, 50 mM HEPES (pH 7.4), 0.01% BSA, 30 μg/ml saponin and 10 μM GDP. To this was added an EC80 concentration of agonist (2-methyl-thio-adenosine diphosphate), the required concentration of test compound and 0.1 μCi ^35S-GTPγS. The reaction was allowed to proceed at 30° C. for 45 min. Samples were then transferred on to GF/B filters using a cell harvester and washed with wash buffer (50 mM Tris (pH 7.4), 5 mM MgCl2, 50 mM NaCl). […]

Row | SMILES | IC50 [µM]
1 | CCOC(=O)c1cc(C#N)c(N2CC(C(=O)NS(=O)(=O)Cc3ccccc3)C2)nc1COCc1ccccc1 [Example 35, Ethyl 2-[(benzyloxy)methyl]-6-{3-[(benzylsulfonyl)carbamoyl]azetidin-1-yl}-5-cyanonicotinate] | 0.089
2 | CCOC(=O)c1cc(C#N)c(N2CC(C(=O)NS(=O)(=O)Cc3ccccc3F)C2)nc1OC [Example 21] | 0.015
3 | CCOC(=O)c1cc(C#N)c(N2CCC(C(=O)NS(=O)(=O)c3ccccc3)CC2)nc1OC [Example 7, Ethyl 5-cyano-2-methoxy-6-{4-[(phenylsulfonyl)carbamoyl]piperidin-1-yl}nicotinate] | 0.134
